Test results taken from article doi:10.1101/2024.12.09.627564, “Cannabinoid inhibition of mechanosensitive K^+ channels” (bioRxiv, 2024).

How the values were obtained:
TRPV1–4 = test system: TRPV1–4; parameters: method as in PMID 30697147, PMID 31566564; conditions: activation; cited from earlier work
BK = test system: BK; parameters: method as in PMID 38708937; conditions: inhibition; cited from earlier work
Homo sapiens TREK-2 = molecular target: T1, Homo sapiens TREK-2 (Homo sapiens, UniProt P57789); experiment: Excised inside-out patch recording of TREK-2 from Xenopus oocytes; assay type: biochemical
T1 construct: TREK-2 amino acids 1–538; expressed in transfected cells; host or cells: Xenopus laevis oocytes, cRNA injection
T1 sequence (P57789 1-538): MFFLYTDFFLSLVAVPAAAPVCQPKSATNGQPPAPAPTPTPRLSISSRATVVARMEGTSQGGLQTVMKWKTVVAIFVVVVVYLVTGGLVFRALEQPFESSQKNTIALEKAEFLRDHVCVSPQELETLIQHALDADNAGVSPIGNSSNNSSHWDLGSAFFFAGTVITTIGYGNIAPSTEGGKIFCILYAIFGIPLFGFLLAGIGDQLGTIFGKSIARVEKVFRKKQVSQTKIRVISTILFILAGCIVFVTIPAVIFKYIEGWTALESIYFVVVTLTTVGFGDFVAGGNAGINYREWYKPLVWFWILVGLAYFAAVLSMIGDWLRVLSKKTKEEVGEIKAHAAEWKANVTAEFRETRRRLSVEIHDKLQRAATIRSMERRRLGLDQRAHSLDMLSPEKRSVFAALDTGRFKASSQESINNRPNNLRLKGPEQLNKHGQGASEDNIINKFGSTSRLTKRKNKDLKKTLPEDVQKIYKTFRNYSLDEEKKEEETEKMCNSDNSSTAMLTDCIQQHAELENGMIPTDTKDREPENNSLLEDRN
Text: (§1) For patch clamp recording from Xenopus oocytes, genes encoding full-length Homo sapiens TRAAK (UniProt Q9NYG8–2), TREK-1 (UniProt O95069), and TREK-2 (UniProt P57789) were codon optimized for eukaryotic expression, synthesized (Genewiz), and cloned into a modified pGEMHE vector using Xho1 and EcoR1 restriction sites. The transcribed messages encode H. sapiens TRAAK amino acids 1–393, TREK-1 amino acids 1–426, or TREK-2 amino acids 1–538 with an additional three amino acids (SNS) at the C terminus. TRAAK mutants were introduced by polymerase chain reaction (PCR). Linearized DNA was transcribed in vitro using T7 polymerase. Complementary RNA (0.1 to 10 ng for TRAAK, TREK-1, TREK-2, and mutants) in 50 nL H2O was injected into Xenopus laevis oocytes extracted from anesthetized frogs. Currents were recorded at 25 °C from inside-out patches excised from oocytes 1 to 5 d after RNA injection. […]
(§2) Patches were evaluated with voltage-step protocols to confirm TRAAK expression and minimal non-specific leak based on reversal potential. Currents were recorded using an Axopatch 200B amplifier (Molecular Devices) at a bandwidth of 1 kHz and digitized with an Digidata 1550B (Molecular Devices) at 100–500 kHz using pClamp10.7 software. […] In an effort to minimize variability associated with differences in resting membrane tension, we targeted patches with low basal curvature and low resting channel activity and ensured measured pressure difference across the patch was as close to zero as possible at rest to prevent mechanical activation of channels. Data were analyzed using Clampfit 10.7, Excel, and Graphpad Prism software. […]
(§3) To avoid cannabinoid absorption to plastic, cannabinoid solutions were made in glass vials and diluted by weight, perfusion was performed using glass tubing pulled from borosilicate glass Pasteur pipettes (Fisherbrand, Cat# 13–678-20C), and recordings were performed in glass chambers. Channel activity was continuously recorded during perfusion steps. […]

Homo sapiens TREK-1 = molecular target: T2, Homo sapiens TREK-1 (Homo sapiens, UniProt O95069); experiment: Excised inside-out patch recording of TREK-1 from Xenopus oocytes; assay type: biochemical
T2 construct: TREK-1 amino acids 1–426; expressed in transfected cells; host or cells: Xenopus laevis oocytes, cRNA injection
T2 sequence (O95069 1-426): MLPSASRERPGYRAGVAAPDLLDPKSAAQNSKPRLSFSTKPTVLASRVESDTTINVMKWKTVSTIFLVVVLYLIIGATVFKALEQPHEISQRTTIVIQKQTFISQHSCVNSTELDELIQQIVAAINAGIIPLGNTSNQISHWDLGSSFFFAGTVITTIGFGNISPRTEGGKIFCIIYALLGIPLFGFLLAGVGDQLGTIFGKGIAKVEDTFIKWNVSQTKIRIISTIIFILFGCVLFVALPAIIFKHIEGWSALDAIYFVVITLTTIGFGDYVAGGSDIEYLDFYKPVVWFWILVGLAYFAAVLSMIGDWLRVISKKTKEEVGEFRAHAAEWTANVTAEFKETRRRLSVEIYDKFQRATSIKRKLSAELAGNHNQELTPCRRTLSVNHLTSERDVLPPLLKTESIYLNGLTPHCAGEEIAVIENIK
Text: as §1, §2, §3

[1] = parameters: method as in PMID 32804502; conditions: slice recordings; cited from earlier work
Kv7.2/7.3 = test system: Kv7.2/7.3; parameters: method as in PMID 35179483, PMID 37857637; conditions: activation; cited from earlier work

C=C(C)[C@@H]1CCC(C)=C[C@H]1c1c(O)cc(CCCCC)cc1O [CBD, Cannabidiol]
EC50 (TRPV1–4): 1000 to 4000 nM
IC50 (BK): 280 nM
IC50 (Homo sapiens TREK-2): 1300 nM
Hill-coefficient (Homo sapiens TREK-2; TREK-2 dose-response): 3.8
fold less sensitive than TRAAK (Homo sapiens TREK-2; TREK-2 vs TRAAK): ~ 10 fold
IC50 (Homo sapiens TREK-1): 1500 nM
Hill-coefficient (Homo sapiens TREK-1; TREK-1 dose-response): 1.5
fold less sensitive than TRAAK (Homo sapiens TREK-1; TREK-1 vs TRAAK): ~ 10 fold
concentration at which antiepileptic effects are observed [1]: ≤ 100 nM
EC50 (Kv7.2/7.3): 200 nM
